# Results taken from patent publication US20050261162A1, “Pharmaceutical composition for preventing and treating cancer and treating an inflammation” (priority 2001, published 2005).
# Experiments:
# [1] = tested on: HL-60 cells; experiment: DNA fragmentation in HL-60 cells (agarose gel electrophoresis); type: cell-based, Human; details: 80 μM, 24 hr
# Experimental: HL-60 cells were cultured in 10% FBS-RPMI 1640 medium of 100 mm Petri dish for 2 days. The cells were treated with 0,10, 40, 80 μM of xanthorrhizol to investigate the effect of xanthorrhizol on DNA fragmentation, a biochemical marker of apoptosis. After 24 hr, the cells were collected, incubated with 500 μl of lysis buffer (1 % Triton-X 100, 50 mM Tris-HCl pH 7.4, 20 mM EDTA) for 1 hr on ice, and centrifuged. To the supernatant was added 100 μl of 1% SDS, 10 μl f TE/RNase(10 mg/ml), 50 µl of proteinase K (1 mg/ml) and the mixture was incubated at 37° C. at least for 4 hr. DNA was extracted with phenol-chloroform-isoamylalcohol (25:24:1, v/v) and precipitated at −70° C. for 1 hr after addition of 2.5 volumes of cold ethanol. DNA fragments were resolved by 1.5% agarose gel electrophoresis and visualized by staining with ethidium bromide.
# [2] = tested on: IκBα; experiment: Inhibition of IκB degradation in mouse skin treated with TPA (western blotting); type: in vivo; details: mouse skin cytoplasmic extract, topical pretreatment before TPA
# Experimental: To examine the effect of xanthorrhizol on IκB, the level of IκB was measured in mouse skin. Cytoplasmic extract was prepared as follows. The mouse skin tissue obtained by the same method of embodiment 4 was homogenized in hypotonic buffer solution [10 mM HEPES, pH 7.8, 10 mM KCl, 2 mM MgCl2, 1 mM DTT, 0.1 mM EDTA, 0.1 mM phenylmethylsulfonyl fluoride (PMSF)]. To the homogenates was added 125 μl of 10% Nondiet P-40 solution and the mixture was then centrifuged for 30 sec. The supernatant (cytoplasmic extract) was electrophoresized on the 12% SDS-polyacrylamide gel. Blot was transferred from SDS-polyacrylamide gel to PVDF membrane, blocked with 5% fat-free dry milk-PBST buffer for 2 hr at room temperature and then washed in PBST buffer. Membrane was incubated for 2 hr at room temperature with rabbit IκBα polyclonal antibody (Santa Cruz Product, Santa Cruz, Calif., USA). Blot was rinsed with PBST, incubated with anti-rabbit horseradish peroxidase-conjugated secondary antibody (Santa Crus product, Santa Cruz, Calif., USA) and again washed 3 times in PBST buffer for 5 min. Transferred protein was visualized with an ECL detection kit.
# [3] = tested on: skin tumor formation induced by DMBA and TPA; experiment: Two-stage mouse skin carcinogenesis model (DMBA/TPA); type: in vivo, ICR mice
# Excerpt: The chemoprotective effect of xanthorrhizol and the methanolic extract of Curcuma xanthorrhiza Roxb. against tumor formation was investigated in multistage mouse carcinogenesis induced by tumor initiator (DMBA) and tumor promoter (TPA).
# To evaluate the inhibitory effect of xanthorrhizol and the methanolic extract of Curcuma xanthoffhiza Roxb. against tumor formation, 30 mice (6 weeks age, female) per an experimental group was used. The dorsal region of ICR mice was shaved with an electric clipper. After a topical application of 0.2 μmol DMBA in 0.2 ml acetone, mice were treated topically with xanthorrhizol or the methanolic extract of Curcuma xanthorrhiza 30 min prior to each topical application of 10 nmol TPA in 0.2 ml acetone which was continued three times weekly for 19 weeks. The negative control was treated with only 0.2 ml acetone. Tumors were counted and recorded biweekly. The results were expressed as the average number of tumors per mouse (tumor multiplicity) and the percentage of tumor-bearing mice (tumor incidence) and are shown at FIG. 3 and FIG. 4. […] FIG. 4 is a photograph representing the inhibitory effect of xanthorrhizol against tumor formation at 19 weeks.
# [4] = tested on: Salmonella typhimurium TA102 strain; experiment: Antimutagenic effect on mutagenesis induced by reactive oxygen species (His+ revertant colonies); type: cell-based; details: compared with curcumin as positive control
# Experimental: The antimutagenic effect of xanthorrhizol was examined in Salmonella typhimurium TA102 strain including mutagenesis with reactive oxygen species (Levin, D. E., et al., Proc. Natl. Acad. Sci. U. S. A., 79;7445-7449, 1982).
# Salmonella typhimurium TA102 strain was cultured in Oxoid nutrient broth medium for 11 hours. 100 μl of above-cultured medium was added to 600 μl of the reaction mixture containing tert-butylhydroperoxide (100 μg/plate) or hydrogen peroxide (50 μg/plate) with or without xanthorrhizol and incubated for 30 minutes at 37° C. Curcumin was added instead of xanthorrhizol in positive control. The concentration of xanthorrhizol or curcumin was 0, 10, 20, 40, 60 nmol/plate and 2, 4, 8, 10, 20, 50 nmol/plate respectively in experiment to examine the inhibitory effect of xanthorrhizol against tert-butylhydroperoxide and hydrogen peroxide-induced mutagenesis. The reaction mixture was transferred to 2 ml of top agar solution containing 0.5 mM of histidine and biotin and was homogeneously mixed. It was poured to minimal glucose plate. The plates were incubated for 48 hours at 37° C. and the number of His+ revertant colonies counted.
# [5] = tested on: HL-60 cells; experiment: Apoptosis morphology in HL-60 cells (Hoechst 33258 staining, fluorescence microscopy); type: cell-based, Human; details: xanthorrhizol 40 μM, 24 hr
# Experimental: Human promyelocytic leukemia (HL-60) cells were maintained at 37° C. in a humidified atmosphere of 95% air and 5% CO2 in RPMI 1640 supplemented with 10% (v/v) heat-inactivated fetal bovine serum (FBS). HL-60 cells were cultured in 6-well plate in RPMI 1640 medium containing 10% FBS in the absence or presence of the methanolic extract of Curcuma xanthorrhiza (15 μg/ml) and xanthorrhizol (40 μM) and centrifuged after 24 hr. 4% neutral buffered formaline was added to the cell and the mixture was transferred to slides, which were left at room temperature for dryness. The fixed cells were washed in PBS, air-dried and stained with DNA-specific fluorochrome Hoechest 33258 for 1 min. The adhered cells were washed with PBS, air dried, and mounted with 50% glycerol. The slides were observed by fluorescence microscopy.
smiles,measurement,setting,value
CC(C)=CCC[C@@H](C)c1ccc(C)c(O)c1 [xanthorrhizol],DNA fragmentation,[1],induced
same,degradation of IκBα induced by TPA,[2],inhibited by xanthorrhizol in a dose dependent manner
same,average number of skin tumors per mouse (tumor multiplicity),"[3]; 6 μmol topical, three times per week for 19 weeks, DMBA/TPA control 15.5",4.0 skin tumors per mouse
same,percentage of tumor-bearing mice (tumor incidence),"[3]; 6 μmol topical, three times per week for 19 weeks, all DMBA/TPA control mice had tumors",57%
same,tumor formation,"[3]; topical application 30 min prior to each TPA, three times weekly for 19 weeks",inhibits tumor formation dose-dependently
same,inhibitory effect against mutagenesis induced by hydrogen peroxide,[4]; hydrogen peroxide 50 μg/plate,more excellent inhibitory effect
same,inhibitory effect against mutagenesis induced by tert-butylhydroperoxide,[4]; tert-butylhydroperoxide 100 μg/plate,more excellent inhibitory effect
same,morphological characteristics of apoptosis,[5],distinct chromatin condensation and nuclear fragmentation
